Source: PMC8637440, “Structural Modifications Yield Novel Insights Into the Intriguing Pharmacodynamic Potential of Anti-inflammatory Nitro-Fatty Acids” (Frontiers in Pharmacology, 2021)
Read-outs that look alike come from different tables or passages of the source.

Molecular target: T1, 5-LO (Homo sapiens, UniProt P09917)
T1 construct: endogenous in cells; host or cells: human PMNL from buffy coats
T1 sequence (P09917 1-674): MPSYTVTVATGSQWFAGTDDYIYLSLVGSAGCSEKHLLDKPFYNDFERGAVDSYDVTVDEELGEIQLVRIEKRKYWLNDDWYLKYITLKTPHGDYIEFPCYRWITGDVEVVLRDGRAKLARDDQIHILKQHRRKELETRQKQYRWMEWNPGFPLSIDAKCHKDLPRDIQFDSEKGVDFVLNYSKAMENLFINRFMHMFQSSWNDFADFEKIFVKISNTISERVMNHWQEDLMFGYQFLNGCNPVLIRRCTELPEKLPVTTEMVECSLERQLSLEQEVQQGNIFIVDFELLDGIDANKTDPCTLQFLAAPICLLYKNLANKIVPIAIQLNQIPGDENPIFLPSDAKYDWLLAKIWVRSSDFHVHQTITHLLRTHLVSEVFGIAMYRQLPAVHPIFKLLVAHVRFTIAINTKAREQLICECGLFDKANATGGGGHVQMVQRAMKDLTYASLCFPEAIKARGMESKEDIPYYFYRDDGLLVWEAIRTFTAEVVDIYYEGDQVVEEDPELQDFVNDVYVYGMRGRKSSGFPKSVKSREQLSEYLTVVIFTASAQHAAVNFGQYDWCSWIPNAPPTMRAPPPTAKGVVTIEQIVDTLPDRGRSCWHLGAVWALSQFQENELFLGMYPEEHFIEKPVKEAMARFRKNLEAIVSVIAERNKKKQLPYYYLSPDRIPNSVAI
Assay: 5-LO product formation (LTB4, 5-HETE) in intact PMNL, A23187 in absence of AA
Format: cell-based
Experimental: Buffy coats from different donors of different blood types were commercially obtained from DRK Blutspendedienst Baden-Württemberg Institute Frankfurt. Donors have given their written consent. To avoid initial blood clotting only buffy coats from one donor or several donors with the same blood type were combined and diluted with 1× PBS mixed with 5% dextran solution and allowed to stand for 30 min at RT to separate the erythrocytes. Following separation, the supernatant was transferred very gently to new 50-ml tubes containing lymphocyte separation medium (LSM) and centrifuged for 10 min at 800 ×g at RT with the centrifuge brake turned off. Afterwards, the supernatant was decanted carefully to discard the platelets and monocytes. The PMNL were washed with 1× PBS before the residual erythrocytes were lysed in two cycles: the cell pellet was resuspended with 10 ml H2O and vortexed for 45 s, and lysis was stopped with 40 ml 1 × PBS. After 10-min centrifugation at 200 ×g at RT, the cycle was repeated once. The supernatant was aspirated, the cell pellet resuspended in 5 ml PBS/glucose and initially separated PMNL preparations with different blood types were finally pooled to gain a sufficient number of cells.
5-LO activity in intact cells was assayed by measuring LTB4 (leukotriene B4) and 5-HETE (5-hydroxyeicosatetraenoic acid) levels in the PMNL supernatants. […] Recombinant 5-LO enzyme activity was assessed by the determination of 5-HETE levels representing a direct product assay. In the cell-based LO activity assays, 5 × 10^6 cells per ml PBS/glucose were transferred to 5 ml glass tubes containing 1 mM CaCl2 and stored on ice. […] […] Recombinant 5-LO activity assays were carried out using 3 µg r5LO-wt enzyme. The enzyme was diluted in PBS/EDTA/ATP, transferred into 5-ml glass tubes, and stored on ice. […] The samples were then pre-heated at 37°C in a water bath and subsequently stimulated with 1 mM CaCl2 and 20 µM AA for 10 min at 37°C. The reaction was stopped by placing the glass tubes on ice. The supernatants were transferred to 1.5 ml reaction tubes and stored at −80°C before LC-MS (liquid chromatography and mass spectrometry) analysis of LTB4 and HETEs as described in 2.6 at the Institute of Pharmacology, Goethe University, University Hospital, Germany.
For experiments shown in Table 4 samples after treatment were supplemented with 500 µl PBS, 30 µl HCl (1 N), and 200 ng internal standard prostaglandin B1. Those samples containing intact cells were centrifuged for 10 min (870 g, room temperature). […] The eluate was diluted with 125 µl H2O and analyzed by reverse-phase HPLC as previously described ([Steinhilber et al., 1989]). […] Unless otherwise stated, 5-LO metabolites 6-trans-LTB4, 12-epi-6-trans-LTB4, LTB4, and 5-H(p)ETE were quantified.

[1] = read-out: PMNL (w/o AA) 5-HETE IC50
[2] = read-out: PMNL (w/o AA) LTB4 IC50

Structure (SMILES)	IC50 [1]	IC50 [2]
CCCCCCCCC=C(CCCCCCCC(=O)O)[N+](=O)[O-] [18.9.9, 9-nitro-octadec-9-enoic acid]	2340 ± 1500 nM	2580 ± 1400 nM
CCCCCCCCCCC=C(CCCCCCCC(=O)O)[N+](=O)[O-] [20.9.9, 9-nitro-eicos-9-enoic acid]	2060 ± 1340 nM	2050 ± 1250 nM
